Results taken from patent US5416191A, “Bradykinin antagonists” (Cortech, Inc., priority 1993, dated 1995).
Where two headings read alike, the source gives them in different places. Square brackets hold non-standard residues; d marks the D form. Peptide text beside a SMILES is read from it. * marks the point of attachment. Hyp = O=C(O)[C@@H]1C[C@@H](O)CN1; X19 = CCCCCCNC(=O)C*

Biological target: T1, bradykinin receptor of the B2 class (rat uterus) (Rattus norvegicus, UniProt P25023)
T1 construct: concentration effect curves to bradykinin (BK) on rat uterus in vitro; from tissue; host or cells: rat uterus
T1 sequence (P25023 1-396): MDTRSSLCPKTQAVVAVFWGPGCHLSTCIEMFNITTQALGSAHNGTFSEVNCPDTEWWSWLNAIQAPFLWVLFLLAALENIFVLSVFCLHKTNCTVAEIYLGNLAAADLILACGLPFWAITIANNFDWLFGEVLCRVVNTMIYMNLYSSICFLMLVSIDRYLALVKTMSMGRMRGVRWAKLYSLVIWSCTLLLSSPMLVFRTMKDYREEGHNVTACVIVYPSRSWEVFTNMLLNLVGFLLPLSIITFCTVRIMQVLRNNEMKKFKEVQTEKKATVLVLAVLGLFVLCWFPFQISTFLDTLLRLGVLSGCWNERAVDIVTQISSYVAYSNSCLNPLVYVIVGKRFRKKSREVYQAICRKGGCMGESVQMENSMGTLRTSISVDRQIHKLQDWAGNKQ
Assay: Rat uterus (RU) in vitro, antagonism of bradykinin
Conditions: for % RECOVERY: rat uterus
Description: Thus in vitro studies were performed on standard assay systems, namely, guinea-pig ileum (GPI), rat uterus (RU) and rabbit jugular vein (RJV). […] The PA2 can be defined as the negative logarithm of the molar concentration of the antagonist in the presence of which the potency of the agonist is reduced two-fold, i.e. twice the amount of agonist is required to produce a given response in the presence of, than in the absence of, the antagonist. A high potency of antagonism is indicated by a high PA2 value, i.e., a low concentration of antagonist is effective.
The percentage recovery (% Rec) was also determined for compounds with respect to each assay.
With respect to duration of activity, it is noted that after exposure to the highest concentration of antagonist, each tissue was washed extensively and then assessed for recovery from the antagonist effect.
Potency in the rat uterus assay was assessed as described above and PA2 values determined.

[1] = Table D, effect of linker length, read-out: pA2 (UTERUS) (converted)

SMILES	% REC (40 MIN) (Table D)	Kb [1] [nM]	also measured
CC(C)C[C@H](NC(=O)[C@@H](Cc1ccccc1)NC(=O)[C@H](CSC1CC(=O)N(CCCCCCCCCCCCN2C(=O)CC(SC[C@H](NC(=O)[C@H](Cc3ccccc3)NC(=O)CNC(=O)[C@@H]3C[C@@H](O)CN3C(=O)[C@@H]3CCCN3C(=O)[C@H](CCCNC(=N)N)NC(=O)[C@H](N)CCCNC(=N)N)C(=O)N[C@H](Cc3ccccc3)C(=O)N[C@@H](CC(C)C)C(=O)N[C@@H](CCCNC(=N)N)C(=O)O)C2=O)C1=O)NC(=O)[C@H](Cc1ccccc1)NC(=O)CNC(=O)[C@@H]1C[C@@H](O)CN1C(=O)[C@@H]1CCCN1C(=O)[C@H](CCCNC(=N)N)NC(=O)[C@H](N)CCCNC(=N)N)C(=O)N[C@@H](CCCNC(=N)N)C(=O)O (stereo partly drawn) [CP-0166] (HELM PEPTIDE1{[dR].R.P.[Hyp].G.F.C.[dF].L.R}|PEPTIDE2{[dR].R.P.[Hyp].G.F.C.[dF].L.R}|CHEM1{[O=C1CC([*:1])C(=O)N1CCCCCCCCCCCCN1C(=O)CC([*:2])C1=O]}$PEPTIDE1,CHEM1,7:R3-1:R1|PEPTIDE2,CHEM1,7:R3-1:R2$$$V2.0)	0%	6.31	
CC(C)C[C@H](NC(=O)[C@@H](Cc1ccccc1)NC(=O)[C@H](CSC1CC(=O)N(CCCCCCCCN2C(=O)CC(SC[C@H](NC(=O)[C@H](Cc3ccccc3)NC(=O)CNC(=O)[C@@H]3C[C@@H](O)CN3C(=O)[C@@H]3CCCN3C(=O)[C@H](CCCNC(=N)N)NC(=O)[C@H](N)CCCNC(=N)N)C(=O)N[C@H](Cc3ccccc3)C(=O)N[C@@H](CC(C)C)C(=O)N[C@@H](CCCNC(=N)N)C(=O)O)C2=O)C1=O)NC(=O)[C@H](Cc1ccccc1)NC(=O)CNC(=O)[C@@H]1C[C@@H](O)CN1C(=O)[C@@H]1CCCN1C(=O)[C@H](CCCNC(=N)N)NC(=O)[C@H](N)CCCNC(=N)N)C(=O)N[C@@H](CCCNC(=N)N)C(=O)O (stereo partly drawn) [CP-0211] (HELM PEPTIDE1{[dR].R.P.[Hyp].G.F.C.[dF].L.R}|PEPTIDE2{[dR].R.P.[Hyp].G.F.C.[dF].L.R}|CHEM1{[O=C1CC([*:1])C(=O)N1CCCCCCCCN1C(=O)CC([*:2])C1=O]}$PEPTIDE1,CHEM1,7:R3-1:R1|PEPTIDE2,CHEM1,7:R3-1:R2$$$V2.0)	25%	3.98	
CC(C)C[C@H](NC(=O)[C@@H](Cc1ccccc1)NC(=O)[C@H](CSC1CC(=O)N(CCCCCCCCCN2C(=O)CC(SC[C@H](NC(=O)[C@H](Cc3ccccc3)NC(=O)CNC(=O)[C@@H]3C[C@@H](O)CN3C(=O)[C@@H]3CCCN3C(=O)[C@H](CCCNC(=N)N)NC(=O)[C@H](N)CCCNC(=N)N)C(=O)N[C@H](Cc3ccccc3)C(=O)N[C@@H](CC(C)C)C(=O)N[C@@H](CCCNC(=N)N)C(=O)O)C2=O)C1=O)NC(=O)[C@H](Cc1ccccc1)NC(=O)CNC(=O)[C@@H]1C[C@@H](O)CN1C(=O)[C@@H]1CCCN1C(=O)[C@H](CCCNC(=N)N)NC(=O)[C@H](N)CCCNC(=N)N)C(=O)N[C@@H](CCCNC(=N)N)C(=O)O (stereo partly drawn) [CP-0229] (HELM PEPTIDE1{[dR].R.P.[Hyp].G.F.C.[dF].L.R}|PEPTIDE2{[dR].R.P.[Hyp].G.F.C.[dF].L.R}|CHEM1{[O=C1CC([*:1])C(=O)N1CCCCCCCCCN1C(=O)CC([*:2])C1=O]}$PEPTIDE1,CHEM1,7:R3-1:R1|PEPTIDE2,CHEM1,7:R3-1:R2$$$V2.0)	0-10%	1	
CC(C)C[C@H](NC(=O)[C@@H](Cc1ccccc1)NC(=O)[C@H](CSC1CC(=O)N(CCCN2C(=O)CC(SC[C@H](NC(=O)[C@H](Cc3ccccc3)NC(=O)CNC(=O)[C@@H]3C[C@@H](O)CN3C(=O)[C@@H]3CCCN3C(=O)[C@H](CCCNC(=N)N)NC(=O)[C@H](N)CCCNC(=N)N)C(=O)N[C@H](Cc3ccccc3)C(=O)N[C@@H](CC(C)C)C(=O)N[C@@H](CCCNC(=N)N)C(=O)O)C2=O)C1=O)NC(=O)[C@H](Cc1ccccc1)NC(=O)CNC(=O)[C@@H]1C[C@@H](O)CN1C(=O)[C@@H]1CCCN1C(=O)[C@H](CCCNC(=N)N)NC(=O)[C@H](N)CCCNC(=N)N)C(=O)N[C@@H](CCCNC(=N)N)C(=O)O (stereo partly drawn) [CP-0172] (HELM PEPTIDE1{[dR].R.P.[Hyp].G.F.C.[dF].L.R}|PEPTIDE2{[dR].R.P.[Hyp].G.F.C.[dF].L.R}|CHEM1{[O=C1CC([*:1])C(=O)N1CCCN1C(=O)CC([*:2])C1=O]}$PEPTIDE1,CHEM1,7:R3-1:R1|PEPTIDE2,CHEM1,7:R3-1:R2$$$V2.0)	90%	2.51	
N=C(N)NCCC[C@@H](N)C(=O)N[C@@H](CCCNC(=N)N)C(=O)N1CCC[C@H]1C(=O)N1C[C@H](O)C[C@H]1C(=O)NCC(=O)N[C@@H](Cc1ccccc1)C(=O)N[C@@H](CO)C(=O)N[C@H](Cc1ccccc1)C(=O)N[C@@H](Cc1ccccc1)C(=O)N[C@@H](CCCNC(=N)N)C(=O)O [CP-0181, DArg^0 -Arg^1 -Pro^2 -Hyp^3 -Gly^4 -Phe^5 -Ser^6 -DPhe^7 -Phe^8 -Arg^9, reference compound]			% RECOVERY (Table F): 100%; Kb (Table F, read-out: RAT UTERUS pA2 (converted)): 100 nM
CC(C)C[C@H](NC(=O)[C@@H](Cc1ccccc1)NC(=O)[C@H](CSC1CC(=O)N(CCCCCCCCCCN2C(=O)CC(SC[C@H](NC(=O)[C@H](Cc3ccccc3)NC(=O)CNC(=O)[C@@H]3C[C@@H](O)CN3C(=O)[C@@H]3CCCN3C(=O)[C@H](CCCNC(=N)N)NC(=O)[C@H](N)CCCNC(=N)N)C(=O)N[C@H](Cc3ccccc3)C(=O)N[C@@H](CC(C)C)C(=O)N[C@@H](CCCNC(=N)N)C(=O)O)C2=O)C1=O)NC(=O)[C@H](Cc1ccccc1)NC(=O)CNC(=O)[C@@H]1C[C@@H](O)CN1C(=O)[C@@H]1CCCN1C(=O)[C@H](CCCNC(=N)N)NC(=O)[C@H](N)CCCNC(=N)N)C(=O)N[C@@H](CCCNC(=N)N)C(=O)O (stereo partly drawn) [CP-0230] (HELM PEPTIDE1{[dR].R.P.[Hyp].G.F.C.[dF].L.R}|PEPTIDE2{[dR].R.P.[Hyp].G.F.C.[dF].L.R}|CHEM1{[O=C1CC([*:1])C(=O)N1CCCCCCCCCCN1C(=O)CC([*:2])C1=O]}$PEPTIDE1,CHEM1,7:R3-1:R1|PEPTIDE2,CHEM1,7:R3-1:R2$$$V2.0)	0%	3.98	
CC(C)C[C@H](NC(=O)[C@@H](Cc1ccccc1)NC(=O)[C@H](CSC1CC(=O)N(CCN2C(=O)CC(SC[C@H](NC(=O)[C@H](Cc3ccccc3)NC(=O)CNC(=O)[C@@H]3C[C@@H](O)CN3C(=O)[C@@H]3CCCN3C(=O)[C@H](CCCNC(=N)N)NC(=O)[C@H](N)CCCNC(=N)N)C(=O)N[C@H](Cc3ccccc3)C(=O)N[C@@H](CC(C)C)C(=O)N[C@@H](CCCNC(=N)N)C(=O)O)C2=O)C1=O)NC(=O)[C@H](Cc1ccccc1)NC(=O)CNC(=O)[C@@H]1C[C@@H](O)CN1C(=O)[C@@H]1CCCN1C(=O)[C@H](CCCNC(=N)N)NC(=O)[C@H](N)CCCNC(=N)N)C(=O)N[C@@H](CCCNC(=N)N)C(=O)O (stereo partly drawn) [CP-0162] (HELM PEPTIDE1{[dR].R.P.[Hyp].G.F.C.[dF].L.R}|PEPTIDE2{[dR].R.P.[Hyp].G.F.C.[dF].L.R}|CHEM1{[O=C1CC([*:1])C(=O)N1CCN1C(=O)CC([*:2])C1=O]}$PEPTIDE1,CHEM1,7:R3-1:R1|PEPTIDE2,CHEM1,7:R3-1:R2$$$V2.0)	90%	5.01	
CCCCCCNC(=O)CSC[C@H](NC(=O)[C@H](Cc1ccccc1)NC(=O)CNC(=O)[C@@H]1C[C@@H](O)CN1C(=O)[C@@H]1CCCN1C(=O)[C@H](CCCNC(=N)N)NC(=O)[C@H](N)CCCNC(=N)N)C(=O)N[C@H](Cc1ccccc1)C(=O)N[C@@H](CC(C)C)C(=O)N[C@@H](CCCNC(=N)N)C(=O)O [CP-0266] (H-[dR]RP[Hyp]GFC(X19)[dF]LR-OH)			Kb (Table H, monomer modifications, read-out: RAT UTERUS pA2 (converted)): 6.31 nM; % RECOVERY (Table H): 70%
CC(C)C[C@H](NC(=O)[C@@H](Cc1ccccc1)NC(=O)[C@H](CSC1CC(=O)N(CCCCN2C(=O)CC(SC[C@H](NC(=O)[C@H](Cc3ccccc3)NC(=O)CNC(=O)[C@@H]3C[C@@H](O)CN3C(=O)[C@@H]3CCCN3C(=O)[C@H](CCCNC(=N)N)NC(=O)[C@H](N)CCCNC(=N)N)C(=O)N[C@H](Cc3ccccc3)C(=O)N[C@@H](CC(C)C)C(=O)N[C@@H](CCCNC(=N)N)C(=O)O)C2=O)C1=O)NC(=O)[C@H](Cc1ccccc1)NC(=O)CNC(=O)[C@@H]1C[C@@H](O)CN1C(=O)[C@@H]1CCCN1C(=O)[C@H](CCCNC(=N)N)NC(=O)[C@H](N)CCCNC(=N)N)C(=O)N[C@@H](CCCNC(=N)N)C(=O)O (stereo partly drawn) [CP-0209] (HELM PEPTIDE1{[dR].R.P.[Hyp].G.F.C.[dF].L.R}|PEPTIDE2{[dR].R.P.[Hyp].G.F.C.[dF].L.R}|CHEM1{[O=C1CC([*:1])C(=O)N1CCCCN1C(=O)CC([*:2])C1=O]}$PEPTIDE1,CHEM1,7:R3-1:R1|PEPTIDE2,CHEM1,7:R3-1:R2$$$V2.0)	50%	6.31	
